Measurements published in patent publication US20150045301A1, “METHODS AND USES OF ANP (ATRIAL NATRIURETIC PEPTIDE), BNP (BRAIN NATRIURETIC PEPTIDE) AND CNP (C-TYPE NATRIURETIC PEPTIDE)-RELATED PEPTIDES AND DERIVATIVES THEREOF FOR TREATMENT OF RETINAL DISORDERS AND DISEASES” (KALOS Therapeutics, Inc., priority 2011, published 2015).
Several values for one entry are separate records, joined by “and”; a condition that tells them apart may be missing. Identical values can stand only once. Entries after “also recorded” stand apart in the source; their conditions may differ.

Tests used:
[1] = test system: Human Pancreatic Adenocarcinoma Cells (HPAC); experiment: HPAC cell viability / anti-cell proliferative assay (Calbiochem Rapid Cell Proliferation Kit, OD 450 nm); assay type: cell-based; conditions: 48 hours; for Optical Densities in 96_Well Plate, Average: average of 5 wells; for Optical Densities in 96_Well Plate, single well: one of 5 replicate wells
Method: Human Pancreatic Adenocarcinoma Cells (HPAC) cells were obtained from ATCC and propagated in Dulbecco's modified Eagle's medium and Ham's F12 medium (DME-F12) (1:1) containing 2.5 mM glutamine, […], 5 ug/mL transferrin, 1 ng/mL EGF (epidermal growth factor), plus 5% FBS (fetal bovine serum). Cell cultures were incubated at 37° C., 5% CO2 in a 100% humidity atmosphere. The cells were routinely brought to confluence in T-flasks, rinsed with phosphate buffered saline(PBS), and treated with trypsin for 5 min at room temp. The trypsinized cells were rinsed from the plate with 10 mL medium and counted. Viability at subculturing was generally ≧95%.
Approximately 10,000 cells in 100 uL of medium were placed in each well of a 96-well plate and incubated over night. Peptides having the following sequences were used: Arg-15-Cys (RSSCAGAALSPLGAC); Pro-15-Val (PNEEAGAALSPLPEV); Ala-8-Leu (AGALSPL); C-ANP 4-23 ([…]) and, VDL ([…]). The peptides were dissolved in PBS and sterile filtered. The peptides were diluted into the cell culture medium to the following final concentrations: 1, 0.3, 0.1, 0.03, and 0.01 uM. Each peptide was tested in 5 replicate wells. The cultures were incubated for an additional 48 hours at 37° C.
The viability of the cells was determined using a Calbiochem Rapid Cell Proliferation Kit (catalog number QIA127). Ten uL of Calbiochem color reagent was added to each well and incubated for an additional 1.5 hours at 37° C. Optical densities were read at 450 nm using a Molecular Devices ThermoMax microplate reader. The plate template is shown in Table I (unlabeled wells contained cells but no peptide and were used as blanks). Results are presented in Table I, and are graphically illustrated in FIGS. 1 and 2.

cancer cells [2] = experiment: Anti-cancer activity of peptides with the conserved motif (cell proliferative assay); assay type: cell-based; conditions: statement in the description
From the text: This example describes activity of peptides having a conserved motif and conserved amino acids predicted to be functional in the motif. (Table III). This example also describes additional exemplary peptide sequences having a conserved motif predicted to have activity (Table IV). Notations “Res 1, Res 2” etc., herein refer by single letter abbreviation the amino acid in the exemplary peptide 8-mer. “Activity” can be determined by a cell proliferative assay, such as an assay described herein or known to one of skill in the art. Of course, peptides exemplified in Table IV can include the conserved motif peptide as part of a larger protein. The SEQ ID NO is the same as the peptide number. Each of these exemplary peptides can be analyzed in vitro, ex vivo, and in vivo for anti-cell proliferative activity using an assay, such as a cell based in vitro assay described in Examples 1 or 4.

[3] = test system: Human RPE cells (ARPE-19); experiment: Transepithelial electrical resistance (TEER) of RPE cell layer treated with VEGF; assay type: cell-based; conditions: ARPE-19 cell layer
cancer cells [4] = conditions: comparison between natriuretic peptides, Vesely 2008; cited from earlier work
NPRC = target: T1, NPRC (Homo sapiens, UniProt P17342); conditions: comparison between natriuretic peptides, Vesely 2008; cited from earlier work
T1 sequence (P17342 27-541): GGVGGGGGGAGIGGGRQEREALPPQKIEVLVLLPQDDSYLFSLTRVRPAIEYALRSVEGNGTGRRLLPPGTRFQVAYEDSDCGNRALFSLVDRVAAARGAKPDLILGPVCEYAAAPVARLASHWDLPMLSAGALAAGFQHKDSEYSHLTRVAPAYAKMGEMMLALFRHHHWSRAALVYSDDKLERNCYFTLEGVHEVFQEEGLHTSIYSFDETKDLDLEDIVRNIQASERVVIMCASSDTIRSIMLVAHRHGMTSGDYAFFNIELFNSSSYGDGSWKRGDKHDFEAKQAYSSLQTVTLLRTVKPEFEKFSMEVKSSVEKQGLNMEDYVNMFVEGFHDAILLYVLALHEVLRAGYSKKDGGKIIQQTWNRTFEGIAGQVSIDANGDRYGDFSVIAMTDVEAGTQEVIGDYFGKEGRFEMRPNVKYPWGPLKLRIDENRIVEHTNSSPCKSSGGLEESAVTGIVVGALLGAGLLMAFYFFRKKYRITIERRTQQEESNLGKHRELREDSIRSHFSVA

NPRA = target: T2, NPRA (Homo sapiens, UniProt P16066); conditions: comparison between natriuretic peptides, Vesely 2008; cited from earlier work
T2 sequence (P16066 33-1061): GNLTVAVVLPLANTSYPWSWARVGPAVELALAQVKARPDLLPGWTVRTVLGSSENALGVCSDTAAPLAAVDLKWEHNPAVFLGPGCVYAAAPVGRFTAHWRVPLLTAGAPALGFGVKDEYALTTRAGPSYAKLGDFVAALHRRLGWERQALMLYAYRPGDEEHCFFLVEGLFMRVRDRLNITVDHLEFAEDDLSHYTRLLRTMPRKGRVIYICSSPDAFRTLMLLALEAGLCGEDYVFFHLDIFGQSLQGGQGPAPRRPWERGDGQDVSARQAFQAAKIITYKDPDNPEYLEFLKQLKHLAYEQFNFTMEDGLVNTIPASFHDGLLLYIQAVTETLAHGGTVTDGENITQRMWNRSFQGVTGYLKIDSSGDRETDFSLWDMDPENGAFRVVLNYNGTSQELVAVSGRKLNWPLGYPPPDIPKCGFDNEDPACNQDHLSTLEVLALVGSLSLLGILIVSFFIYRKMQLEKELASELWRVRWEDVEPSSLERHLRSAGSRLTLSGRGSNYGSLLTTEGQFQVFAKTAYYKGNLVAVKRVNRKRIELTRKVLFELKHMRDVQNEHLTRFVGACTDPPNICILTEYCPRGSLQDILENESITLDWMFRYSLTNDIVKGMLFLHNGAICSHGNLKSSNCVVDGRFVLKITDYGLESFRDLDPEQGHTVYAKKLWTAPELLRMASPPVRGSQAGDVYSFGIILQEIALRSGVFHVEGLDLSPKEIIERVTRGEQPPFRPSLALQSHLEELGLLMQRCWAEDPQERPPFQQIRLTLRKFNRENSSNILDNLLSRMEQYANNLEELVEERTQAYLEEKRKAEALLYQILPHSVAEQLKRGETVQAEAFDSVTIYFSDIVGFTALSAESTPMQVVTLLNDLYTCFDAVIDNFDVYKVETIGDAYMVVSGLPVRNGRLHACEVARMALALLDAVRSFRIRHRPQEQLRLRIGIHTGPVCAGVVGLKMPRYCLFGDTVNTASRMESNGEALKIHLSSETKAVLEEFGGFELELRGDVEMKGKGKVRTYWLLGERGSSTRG

| Substance | Optical Densities in 96_Well Plate, Average ([1]; peptide 0.01 μM) | Optical Densities in 96_Well Plate, single well ([1]; peptide 0.01 μM) | Optical Densities in 96_Well Plate, Average ([1]; peptide 0.03 μM) | Optical Densities in 96_Well Plate, single well ([1]; peptide 0.03 μM) | Optical Densities in 96_Well Plate, Average ([1]; peptide 0.1 μM) | Optical Densities in 96_Well Plate, single well ([1]; peptide 0.1 μM) | Optical Densities in 96_Well Plate, Average ([1]; peptide 0.3 μM) | Optical Densities in 96_Well Plate, single well ([1]; peptide 0.3 μM) | Optical Densities in 96_Well Plate, Average ([1]; peptide 1.0 μM) | Optical Densities in 96_Well Plate, single well ([1]; peptide 1.0 μM) | Activity of peptides sharing the conserved motif (cancer cells [2]) | Effect on VEGF-induced decrease in trans-epithelial electrical resistance (TEER) ([3]; concurrent treatment with VEGF 10 ng/ml, ANP luM) | Relative potency of NPs (cancer cells [4]) | Relative binding affinity at NPRC (NPRC) | Relative binding affinity at NPRA (NPRA) | Effect on transepithelial electrical resistance (TEER) ([3]; VEGF 10 ng/ml) |
| --- | --- | --- | --- | --- | --- | --- | --- | --- | --- | --- | --- | --- | --- | --- | --- | --- |
| AGALSPL [Ala-8-Leu, 8-mer conserved motif peptide] | 0.937 | 0.744 and 0.878 and 1.000 and 0.892 and 1.169 | 0.976 | 0.892 and 0.937 and 0.989 and 0.921 and 1.139 | 0.991 | 0.832 and 1.006 and 1.031 and 0.910 and 1.174 | 1.002 | 0.784 and 0.802 and 0.998 and 1.357 and 1.070 | 0.985 | 0.732 and 1.216 and 0.954 and 0.834 and 1.189 | – | – | – | – | – | – |
| ANP: atrial natriuretic peptide; Table III sequence SLRRSSCFGGRMDRIGAQSGLGCNSFRY [reference compound] | 0.908 | 0.981 and 0.815 and 0.822 and 0.965 and 0.955 | 0.935 | 0.948 and 0.882 and 0.911 and 0.951 and 0.982 | 0.838 | 0.884 and 0.889 and 0.907 and 0.862 and 0.650 | 0.974 | 1.001 and 0.889 and 0.837 and 0.934 and 1.209 | 0.914 | 1.018 and 0.819 and 0.954 and 0.829 and 0.951 | have activity | attenuated the effect of VEGF; also recorded: This decrease is attenuated by ANP | greater potency observed for ANP than CNP | higher binding affinities at NPRA and NPRC | higher binding affinities at NPRA and NPRC | – |
| BNP: brain natriuretic peptide; motif in Table III FGKRMDRI | – | – | – | – | – | – | – | – | – | – | have activity | – | – | – | – | – |
| CNP: C-type natriuretic peptide; motif in Table III FGLKLDRI | – | – | – | – | – | – | – | – | – | – | have activity; also recorded: less active than ANP, LANP, KP or VDL | – | greater potency of CNP than BNP | higher binding affinity than BNP specifically at NPRC | – | – |
| EVVPPQVLSEPNEEAGAALSPLPEVPPWTGEVSPAQR [KT-220 (VDL), vessel dilator VDL] | – | – | – | – | – | – | – | – | – | – | have activity | – | – | – | – | – |
| KP: ANP-related peptide; motif in Table III LKSKLRAL (SSDRSALLKSKLRALLTAPR; Kaliuretic peptide; UniProt P01160 104-123, looked up) | – | – | – | – | – | – | – | – | – | – | have activity | – | – | – | – | – |
| LANP: ANP-related peptide; motif in Table III FKNLLDHL (NPMYNAVSNADLMDFKNLLDHLEEKMPLED; Long-acting natriuretic peptide; UniProt P01160 26-55, looked up) | – | – | – | – | – | – | – | – | – | – | have activity | – | – | – | – | – |
| PNEEAGAALSPLPEV [Pro-15-Val] | 0.916 | 0.907 and 0.905 and 0.633 and 1.209 and 0.928 | 0.894 | 0.892 and 0.765 and 0.693 and 1.151 and 0.970 | 0.918 | 0.680 and 0.895 and 0.893 and 1.156 and 0.964 | 0.916 | 0.875 and 0.817 and 0.855 and 1.024 and 1.010 | 0.948 | 0.856 and 0.752 and 0.802 and 1.083 and 1.248 | – | – | – | – | – | – |
| RSSCAGAALSPLGAC [Arg-15-Cys] | 0.934 | 0.974 and 0.920 and 0.863 and 0.840 and 1.075 | 0.982 | 1.093 and 0.894 and 0.789 and 0.955 and 1.178 | 0.950 | 1.016 and 0.917 and 0.801 and 0.990 and 1.025 | 0.897 | 0.988 and 0.957 and 0.668 and 0.913 and 0.959 | 0.962 | 1.155 and 1.005 and 0.787 and 0.944 and 0.919 | – | – | – | – | – | – |
| RSSCFGGRIDRIGAC [C-ANP 4-23, the ANP analog, reference compound] | 0.938 | 0.877 and 0.971 and 0.953 and 0.932 and 0.958 | 0.932 | 0.905 and 0.882 and 0.981 and 0.948 and 0.943 | 0.942 | 0.758 and 1.027 and 0.983 and 0.960 and 0.982 | 0.942 | 0.840 and 0.928 and 1.035 and 0.975 and 0.932 | 0.925 | 0.865 and 0.925 and 0.900 and 0.955 and 0.981 | have activity | – | – | – | – | – |
| VEGF | – | – | – | – | – | – | – | – | – | – | – | – | – | – | – | lowered resistance |
